The target in the assay is T1, Human GO (Homo sapiens, UniProt Q9UJM8).
T1 construct: purchased Novus Biologicals NBP1-72412
T1 sequence (Q9UJM8 1-370): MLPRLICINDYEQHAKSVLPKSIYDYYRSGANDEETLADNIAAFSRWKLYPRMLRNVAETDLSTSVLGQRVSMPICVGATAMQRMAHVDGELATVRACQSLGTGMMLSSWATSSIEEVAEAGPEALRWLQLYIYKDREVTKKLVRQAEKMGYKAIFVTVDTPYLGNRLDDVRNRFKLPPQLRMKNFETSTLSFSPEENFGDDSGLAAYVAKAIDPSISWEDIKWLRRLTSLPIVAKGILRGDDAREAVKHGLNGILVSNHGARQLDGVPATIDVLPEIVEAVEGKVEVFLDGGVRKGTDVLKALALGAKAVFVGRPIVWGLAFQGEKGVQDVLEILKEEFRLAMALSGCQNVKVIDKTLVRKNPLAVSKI
In words: GO enzymatic assay (coupled fluorescence/HRP assay, glycolate substrate). The conditions noted are these: read-out: Range (range of IC50 values calculated from the enzymatic assays). In kind it is biochemical. In a few lines:
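Coupled HRP/fluorescence read-out of glycolate oxidation by human GO in 50 mM potassium phosphate buffer (pH 7). Inhibitors added across a concentration range.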

SMILES strings stand for the structures. Read-outs that look alike come from different tables or passages of the source. Some results are limits rather than exact numbers.

By IC50 is commonly meant the concentration that inhibits the measured activity by half. For `O=C(O)c1[nH]nnc1OC1CCN(c2cc(Cl)ccc2Cl)CC1` [Compound 291, 4-((1-(2,5-dichlorophenyl)piperidin-4-yl)oxy)-1H-1,2,3-triazole-5-carboxylic acid 2,2,2-trifluoroacetate], the half-inhibitory concentration (IC50) (Table 2) was < 100 nM.
Regarding `O=C(O)c1[nH]nnc1Oc1ccc(Cl)c(OCC2CC2)c1` [Compound 292, 4-(4-chloro-3-(cyclopropylmethoxy)phenoxy)-1H-1,2,3-triazole-5-carboxylic acid], the IC50 (Table 2) is < 100 nM.
On to `O=C(O)c1[nH]nnc1Oc1cc(OCC2CC2)ccc1Cl` [Compound 293, 4-(2-chloro-5-(cyclopropylmethoxy)phenoxy)-1H-1,2,3-triazole-5-carboxylic acid], for which the IC50 (Table 2) is < 100 nM.
Turning to `O=C(O)c1[nH]nnc1OC(Cc1ccc(Cl)cc1)Cc1ccc(Cl)cc1` [Compound 294, 4-((1,3-bis(4-chlorophenyl)propan-2-yl)oxy)-1H-1,2,3-triazole-5-carboxylic acid], the IC50 (Table 3) was < 100 nM.
`O=C(O)c1[nH]nnc1Oc1ccc(C(F)(F)F)c(OCC2CC2)c1` [Compound 295, 4-(3-(cyclopropylmethoxy)-4-(trifluoromethyl)phenoxy)-1H-1,2,3-triazole-5-carboxylic acid]: for the setting “Table 2”, the IC50 is < 100 nM.
Turning to `O=C(O)c1[nH]nnc1OC(CCc1ccccc1)c1ccccc1` (centres unmarked) [Compound 296, 4-(1,3-diphenylpropoxy)-1H-1,2,3-triazole-5-carboxylic acid], the IC50 (Table 3) is > 10000 nM.
Regarding `O=C(O)c1[nH]nnc1Oc1ccc(-c2ccc(N3CCC(F)(F)CC3)cc2)cc1` [Compound 297, 4-((4′-(4,4-difluoropiperidin-1-yl)-[1,1′-biphenyl]-4-yl)oxy)-1H-1,2,3-triazole-5-carboxylic acid 2,2,2-trifluoroacetate], the IC50 (Table 2) was < 100 nM.
As to `O=C(O)c1[nH]nnc1OCC1CCC(c2ccc(OC(F)(F)F)cc2)CC1` (centres unmarked) [Compound 298, 4-((4-(4-(trifluoromethoxy)phenyl)cyclohexyl)methoxy)-1H-1,2,3-triazole-5-carboxylic acid], the IC50 (Table 2) is < 100 nM.
With `O=C(O)c1[nH]nnc1COc1ccc(-c2cc(Cl)cc(Cl)c2)cc1` [Compound 299, 4-(((3′,5′-dichloro-[1,1′-biphenyl]-4-yl)oxy)methyl)-1H-1,2,3-triazole-5-carboxylic acid], the 50% inhibitory concentration (IC50) (Table 2) was < 100 nM.
Consider `O=C(O)c1[nH]nnc1COc1ccc(-c2ccc(OC(F)(F)F)c(Cl)c2)cc1` [Compound 300, 4-(((3′-chloro-4′-(trifluoromethoxy)-[1,1′-biphenyl]-4-yl)oxy)methyl)-1H-1,2,3-triazole-5-carboxylic acid], for which the IC50 (Table 2) was < 100 nM.
On to `O=C(O)c1[nH]nnc1Oc1ccc(N2CCC(F)(F)CC2)cc1` [Compound 301, 4-(4-(4,4-difluoropiperidin-1-yl)phenoxy)-1H-1,2,3-triazole-5-carboxylic acid 2,2,2-trifluoroacetate], for which, where the note is “Table 2”, the IC50 was 100 to 1000 nM.
On to `O=C(OCOC(=O)C1CCCCC1)c1[nH]nnc1O[C@H]1CC[C@H](c2ccc(OC(F)(F)F)cc2)CC1` [Compound 303, ((cyclohexanecarbonyl)oxy)methyl 4-(((trans)-4-(4-(trifluoromethoxy)phenyl)cyclohexyl)oxy)-1H-1,2,3-triazole-5-carboxylate], for which the IC50 (Table 2) is > 10000 nM.
Same read-out and setting: in the case of `O=C(O)c1[nH]nnc1O[C@H]1CC[C@@H](c2cc(Cl)cc(Cl)c2)CC1` [Compound 304, 4-(((1s,4s)-4-(3,5-dichlorophenyl)cyclohexyl)oxy)-1H-1,2,3-triazole-5-carboxylic acid] it was < 100 nM; in that of `O=C(OCOC(=O)c1[nH]nnc1O[C@H]1CC[C@H](c2ccc(OC(F)(F)F)cc2)CC1)c1ccccc1` [Compound 305, (benzoyloxy)methyl 4-(((trans)-4-(4-(trifluoromethoxy)phenyl)cyclohexyl)oxy)-1H-1,2,3-triazole-5-carboxylate], > 10000 nM.

The values are drawn from patent US11384055B2 (BIOMARIN PHARMACEUTICAL INC., priority 2017, dated 2022).
